The text below walks through data of patent US20080026474A1, “ASSAY FOR DIFFERENTIATING COMPOUNDS THAT MODULATE THE EXTRINSIC AND/OR INTRINSIC COAGULATION PATHWAYS” (Bristol-Myers Squibb Company, priority 2006, published 2008).

“Also recorded” adds a separate entry of the source.

The test system of assay [1] is TF-induced platelet aggregation in human platelet-rich plasma. As to the kind of experiment: TF-induced platelet aggregation assay (time delay / lag time) in human platelet-rich plasma. Type of assay: cell-based. The following applies: human PRP; for time delay of platelet aggregation: 0 μM = 75 seconds; for 2×Base value (concentration required to double the time for TF-induced platelet aggregation): time delay of TF-induced platelet aggregation. As for the experimental part: The remaining samples were then centrifuged at […] for 10 min to obtain platelet-poor plasma (PPP). Platelet count was adjusted to 2-2.5×10^8 cells/ml with platelet-poor plasma.
PRP (275 μl) sample was briefly mixed with 25 μl of 36 mg/ml pefabloc. Various compounds (in a volume of 1.2 μl) were added and incubated at 37° C. for 3 min in a cylindrical glass cuvette. Platelet aggregation was induced by 4 μl of Innovin®-CaCl2 mixture and measured under continuous stirring at 1000 rpm in a PA-200 platelet aggregation analyzer (Kowa, Tokyo, Japan). Platelet-poor plasma was used as a reference. Platelet aggregation curves defined by changes in light transmission over time were recorded for 15 min. The lag time was defined as the time from CaCl2 addition until the light transmittance reached 1%. The concentration of Innovin® and CaCl2 was adjusted for each sample so that the average control lag time was from 50 to 70 seconds.

For assay [2], the system named is thrombus formation in carotid artery. As to the kind of experiment: Rabbit ECAT model. The format is in vivo. Conditions: i.v. infusion, drug concentration maintaining total blood flow at 80% of baseline. As for the experimental part: Briefly, male, New Zealand, white rabbits were anesthetized with ketamine (50 mg/kg+50 mg/kg/h i.m.) and xylazine (10 mg/kg+10 mg/kg/h i.m.). These anesthetics were supplemented as needed. An electromagnetic flow probe was placed on a segment of an isolated carotid artery to monitor blood flow. Thrombus formation was induced by electrical stimulation of the carotid artery for 3 min at 4 mA using an external stainless steel bipolar electrode. […] Plasma concentrations were determined in blood samples taken at the end of the experiment by liquid chromatography-tandem mass spectrometry.
Carotid blood flow was measured continuously over the 90-min period of thrombus formation and total carotid blood flow was calculated as an area under the carotid blood flow-time curve. Preservation of total CBF relative to sustained baseline flow was used to assess antithrombotic activity. The drug concentrations which maintained total blood flow at 80% of baseline (ED80) was the common comparator among antithrombotic agents.

For `NCc1ccccc1-n1nc(C(F)(F)F)cc1C(=O)Nc1ccc(-c2ccccc2S(N)(=O)=O)cc1F` [1-(2-aminomethylphenyl)-3-trifluoromethyl-N-[3-fluoro-2′-(aminosulfonyl)[1,1′-biphenyl)]-4-yl]-1H-pyrazole-5-carboxyamide], in assay [1], the “effect on the time delay of TF-induced platelet aggregation (in words)” value (shortened to “effect on the time delay”) was “dose-dependent effects”.

For the molecule `COc1cc([C@@H]2Nc3ccc(C(=N)N)cc3[C@H]3c4ccccc4C[C@H]32)c(-c2ccc(C(=O)O)cc2)cc1O` [Compound A, 2′-((6R,6aR,11bR)-2-Carbamimidoyl-5,6a,7,11b-tetrahydro-6H-indeno[2,1-c]quinolin-6-yl)-5′-hydroxy-4′-methoxy-biphenyl-4-carboxylic acid], the “time delay of platelet aggregation” value in assay [1] (1.26 μM) came out at 175 s; in assay [1] (4.0 μM), 286 s; in assay [1] (12.6 μM), 671 s; in assay [1] (25.2 μM), 865 s. In addition, in assay [1], the “effect on the time delay” value is “concentration-dependent effect; also recorded: Dose-dependent effect”. In assay [1], the “2×Base value (concentration required to double the time for TF-induced platelet aggregation)” value (“2×Base value” for short) came to 1.25 µM. The molecule further displayed an ED80 in assay [2] of 1.1 µM.

`CS(=O)(=O)c1ccccc1-c1ccc(NC(=O)c2cc(C(F)(F)F)nn2-c2cccc(CN)c2)c(F)c1` [Compound B, 1-[3-(aminomethyl)phenyl]-N-[3-fluoro-2′-(methylsulfonyl)[1,1′-biphenyl]-4-yl]-3-(trifluoromethyl)-1H-pyrazole-5-carboxamide]: the ED80 in assay [2] was 0.4 µM.

On to `CC(C)CC(=O)Nc1cc(-c2ccc(C(N)=O)cc2C(=O)O)cc([C@@H]2C[C@](C)(c3ccccc3)c3cc(C(=N)N)ccc3N2)c1` [Compound C, 3′-((2S,4R)-6-Carbamimidoyl-4-methyl-4-phenyl-1,2,3,4-tetrahydro-quinolin-2-yl)-4-carbamoyl-5′-(3-methyl-butyrylamino)-biphenyl-2-carboxylic acid], for which the “effect on TF-induced platelet aggregation at high dose (in words)” value in assay [1] (40 μM) was “weak efficacy”. Also, in assay [1], the “effect on the time delay” value is recorded as “barely showed any effect; also recorded: No effect” and the “2×Base value” value was 26 µM. In assay [2], the ED80 came out at 0.8 µM.

In the case of `CC(C)(C)c1ccccc1Oc1ncccc1NC(=O)Nc1ccc(OC(F)(F)F)cc1` [Compound F, 1-[2-(2-tert-Butyl-phenoxy)-pyridin-3-yl]-3-(4-trifluoromethoxy-phenyl)-urea], in assay [1], the “effect on the time delay” value is “no effect” and the “2×Base value” value is approximately 0 µM.

`CNc1ncnc2c1ncn2[C@H]1C[C@H](OP(=O)(O)O)[C@@H](COP(=O)(O)O)O1` [N6-methyl-2′-deoxyadenosine-3′,5′-bisphosphate, reference compound]: the “effect on the time delay” value in assay [1] is reported as “no effect”.

As to `CSCCNc1nc(SCCC(F)(F)F)nc2c1ncn2[C@@H]1O[C@H](COP(=O)(O)OP(=O)(O)C(Cl)(Cl)P(=O)(O)O)[C@@H](O)[C@H]1O` [cangrelor, reference compound], in assay [1], the “effect on the time delay” value is listed as “no effect”.
